Reference: article PMC8954547, “Nonpeptidic Z360-Analogs Tagged with Trivalent Radiometals as Anti-CCK2R Cancer Theranostic Agents: A Preclinical Study” (Pharmaceutics, 2022)

What was measured:
[1] = test system: HEK293-CCK2i4svR cells; assay: Radioligand uptake and internalization in HEK293-CCK2i4svR cells; format: cell-based, human
Procedure: A day before the experiment, HEK293-CCK2i4svR cells were seeded in six-well plates. The next day, cells were rinsed with ice-cold internalization medium (IM: DMEM Glutamax-I, supplemented by 1% (v/v) FBS) and then the fresh medium was added (1.2 mL) at 37 °C. A further portion of IM (150 µL) was added in the upper well-row, and DG2 solution in IM (150 µL) was added in the lower row (to a final concentration of 1 μM; non-specific series). Each of the test radioligands, [^67Ga]Ga/[^111In]In/[^177Lu]Lu-GAS1/3 and [^67Ga]Ga/[^111In]In-GAS2, was finally added (250 fmol total conjugates in 150 μL 0.5% BSA-PBS) in all the wells and the plates were incubated at for 1 h at 37 °C in an Incubator-Orbital Shaker unit (MPM Instr. SrI, Bernareggio, MI, Italy); [^111In]In-GAS1/2/3 were incubated for 15 min, 30 min, 1 h and 2 h. At the predetermined time points, the plates were placed on ice, the medium was collected, and the plates were rinsed with 0.5% BSA-PBS (1 mL). Cells were subsequently treated with an acid-wash solution (2 × 600 µL; 50 mM glycine buffer pH 2.8, 0.1 M NaCl) and the fractions collected (membrane-bound). After briefly washing with 0.5% BSA-PBS (1 mL), the cells were lysed with 1 N NaOH (2 × 600 µL), and the fractions were collected (internalized). The radioactivity content of collected fractions was counted in the gamma counter, and the percentage of internalized and membrane-bound fractions per time point were calculated with Microsoft Excel. Specific internalized and membrane-bound counts were determined by subtracting the respective non-specific (in the presence of 1 μM DG2) from the respective total counts. Results represent specific internalized/membrane bound ± SD of total added radioactivity per well from three experiments performed in triplicate.

[2] = Radioligand stability in mice (radio-HPLC of blood and urine); format: in vivo; settings: mean ± SD
Procedure: The formation of radiometabolites which can be detected in the blood was tested in blood samples collected 5 min post-injection (pi) of each of the radioligands [^67Ga]Ga/[^111In]In/[^177Lu]Lu-GAS1/3 and [^67Ga]Ga/[^111In]In-GAS2. For this study, in-house male Swiss albino mice (body weight: 30 ± 5 g, provided by the NCSR “Demokritos” Animal House) were used in groups of three. The animals received, through the tail vein, a 100-μL bolus containing each radioligand tested (2.5–3 nmol of the total conjugate in vehicle: saline/EtOH 9/1 v/v, corresponding to: up to 11 MBq for In-111, up to 13 MBq for Ga-67 and up to 74 MBq for Lu-177). Mice were euthanized, and blood was collected directly from the heart using a prechilled penicillin syringe and transferred in a prechilled EDTA-containing Eppendorf Protein LoBind® tube on ice (40 µL, 50 mM Na2EDTA solution). After centrifugation (10 min, 2000× g/4 °C, in a Hettich, Universal 320R, centrifuge), the blood plasma was collected, mixed with chilled MeCN in a 1/1 v/v ratio and centrifuged again (10 min, 15,000× g/4 °C). Supernatants were collected and concentrated to a small volume (≈50–100 μL) under a gentle N2-flux at 40 °C. They were then diluted with physiological saline (≈400 μL) and filtered through a Millex GV filter (0.22 μm, 13 mm Ø, Millipore, Milford, CT, USA). Aliquots of the filtrate were analyzed by radio-RP-HPLC using a Waters Symmetry Shield RP18 cartridge column (5 μm, 3.9 mm × 20 mm) eluted at a flow rate of 1.0 mL/min with the following gradient: 100% A/0% B to 55% A/45% B in 45 min; A = 0.1% aqueous TFA (v/v) and B = MeCN (system 2). The elution time (tR) of each parent radioligand was determined by coinjection of blood samples with an aliquot of the labeling solution on the HPLC column. Results were calculated as the average percentage of intact radioligand ± SD derived from three independent experiments.
Following the same injection protocol, radioligands were administered in additional groups of mice, but this time animals were euthanized 30 min pi. The urine was immediately collected from the bladder using a prechilled syringe and transferred as before in a prechilled EDTA-containing Eppendorf Protein LoBind® centrifuge tube on ice (40 µL, 50 mM Na2EDTA solution) and 0.1 mL of physiological saline. Urine proteins were precipitated by adding chilled MeCN in a 1/1 v/v ratio followed by a 10 min centrifugation step (15,000× g/4 °C). The supernatant was then collected and treated following the blood sample workup procedure. Aliquots of the Millex-GV filtrate (containing >90% of total urine activity) were analyzed by radio-HPLC, adopting the aforementioned conditions. Results were calculated as the average percentage of intact radioligand ± SD derived from three independent experiments.

[3] = test system: SCID mice bearing twin HEK293-CCK2i4svR and wtHEK293 tumors; assay: Biodistribution in SCID mice bearing twin HEK293-CCK2i4svR and wtHEK293 xenografts; format: in vivo
Procedure: Inocula containing a suspension of freshly harvested HEK293-CCK2i4svR/wtHEK293 cells (150 μL, 1.8 × 10^7/1.4 × 10^7 cells, respectively, in normal saline) were subcutaneously (sc) injected in the right and left flanks of male SCID mice (24.5 ± 2.3 g body weight, six weeks of age on arrival day, NCSR “Demokritos” Animal House Facility). Well-palpable tumors (0.42 ± 0.37/0.25 ± […], respectively) were grown at the inoculation site 3–4 weeks later, and biodistribution was conducted. On the day of biodistribution, animals were divided into groups of four and received the radioligand through the tail vein as a bolus (100 μL, containing each of: i. 78–91 kBq [^67Ga]GAS1/2/3 corresponding to 7–17 pmol GAS1/2/3; ii. 74–92 kBq [^111In]GAS1/2/3 corresponding to 20–25 pmol GAS1/2/3; iii. 730 kBq [^177Lu]Lu-GAS1/3 corresponding to 40 pmol GAS1/3, in-vehicle: saline/EtOH 9/1 v/v). Animals were euthanized at predetermined time intervals depending upon the radionuclide applied (for [^67Ga]Ga-GAS1/2/3: 1, 4 and 24 h pi; for [^111In]In-GAS1/2/3: 4 and 24 h pi–two extra groups of mice receiving gelofusine together with [^111In]In-GAS1/2 at 4 and 24 h pi were included; and for [^177Lu]Lu-GAS1/3: 4, 24, 48, 72 and 96 h pi). Mice were dissected, and blood samples, organs of interest and tumors were rapidly collected, weighted and counted in the gamma counter. Biodistribution data was calculated as the percentage of the administered dose per gram tissue (%IA/g) with the aid of suitable standards of the administered dose and the Microsoft Excel program. Results are presented as mean % IA/g values ± SD, n = 4 per time point, as determined by the PRISM^TM 6.0 GraphPad software (San Diego, CA, USA).

## CC(C)(C)C(=O)CN1C(=O)[C@H](NC(=O)Nc2cccc(C(=O)NCCOCCOCCOCCNC(=O)[C@H](CCC(=O)O)NC(=O)CCC(C(=O)[O-])N3CCN(CC(=O)[O-])CCN(CC(=O)[O-])CC3)c2)CN(C2CCCCC2)c2ccccc21.[67Ga+3] (stereo in doubt) [[^67Ga]Ga-GAS2]
[1]
  Internalized to membrane-bound ratio: 0.9
[1]; 1 h 37 °C, specific, of total added activity
  Cell uptake (internalized + membrane-bound): 7.32 ± 0.57%
[2]; mice blood collected 5 min pi
  Intact radioligand in blood: 96.3 ± 3.7 (3) %
[2]; mice urine collected 30 min pi
  Intact radioligand in urine: 81.6 ± 1.5 (3) %
[3]; 1 h pi
  Biodistribution, Blood: 0.86 ± 0.08 %IA/g
  Biodistribution, CCK2i4svR(+) Tumor: 4.06 ± 0.07 %IA/g
  Biodistribution, CCK2i4svR(-) Tumor: 0.48 ± 0.03 %IA/g
  Biodistribution, Femur: 0.24 ± 0.03 %IA/g
  Biodistribution, Heart: 0.27 ± 0.03 %IA/g
  Biodistribution, Intestines: > 25 %IA/g
  Biodistribution, Kidneys: 1.48 ± 0.18 %IA/g
  Biodistribution, Liver: 5.51 ± 2.03 %IA/g
  Biodistribution, Lungs: 0.80 ± 0.09 %IA/g
  Biodistribution, Muscle: 0.12 ± 0.02 %IA/g
  Biodistribution, Pancreas: 0.37 ± 0.05 %IA/g
  Biodistribution, Spleen: 0.52 ± 0.06 %IA/g
  Biodistribution, Stomach: 0.32 ± 0.14 %IA/g
[3]; 1 h pi, listed as [67Ga]Ga-GAS2
  Biodistribution, Intestines: 25.26 ± 2.90 %IA/g
[3]; 4 h pi
  Biodistribution, Blood: 0.19 ± 0.06 %IA/g
  Biodistribution, CCK2i4svR(+) Tumor: 1.53 ± 0.26 %IA/g
  Biodistribution, CCK2i4svR(-) Tumor: 0.19 ± 0.08 %IA/g
  Biodistribution, Femur: 0.13 ± 0.03 %IA/g
  Biodistribution, Heart: 0.10 ± 0.03 %IA/g
  Biodistribution, Intestines: > 25 %IA/g
  Biodistribution, Kidneys: 0.39 ± 0.11 %IA/g
  Biodistribution, Liver: 2.64 ± 0.85 %IA/g
  Biodistribution, Muscle: 0.04 ± 0.01 %IA/g
  Biodistribution, Pancreas: 0.08 ± 0.05 %IA/g
  Biodistribution, Spleen: 0.55 ± 0.15 %IA/g
  Biodistribution, Stomach: 0.14 ± 0.06 %IA/g
[3]; 4 h pi, listed as [67Ga]Ga-GAS2
  Biodistribution, Intestines: 26.38 ± 11.89 %IA/g
[3]; 24 h pi
  Biodistribution, Blood: 0.05 ± 0.00 %IA/g
  Biodistribution, CCK2i4svR(+) Tumor: 0.24 ± 0.03 %IA/g
  Biodistribution, CCK2i4svR(-) Tumor: 0.08 ± 0.00 %IA/g
  Biodistribution, Femur: 0.10 ± 0.03 %IA/g
  Biodistribution, Heart: 0.04 ± 0.01 %IA/g
  Biodistribution, Intestines: 0.31 ± 0.32 %IA/g
  Biodistribution, Kidneys: 0.06 ± 0.01 %IA/g
  Biodistribution, Liver: 0.78 ± 0.17 %IA/g
  Biodistribution, Lungs: 0.15 ± 0.02 %IA/g
  Biodistribution, Muscle: 0.02 ± 0.00 %IA/g
  Biodistribution, Pancreas: 0.03 ± 0.00 %IA/g
  Biodistribution, Spleen: 0.35 ± 0.02 %IA/g
  Biodistribution, Stomach: 0.06 ± 0.02 %IA/g
[3]; mouse, in vivo
  Background clearance / excretion route: high hepatobiliary excretion
